Test system: 192522-019-R-J2-PDC complex tumor spheroid viability
Assay: Anticancer human tumor 192522-019-R-J2-PDC patient-derived colon adenocarcinoma cell line growth inhibition [POLQ]
Conditions: for IC50: curve of first compound; for viability, T/C: stronger effect = lower value
Summary of the method: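 Three-cell-type spheroids modelling solid tumor plus stroma served as the readout system; POL inhibitors were tested individually and in combination, concentration ranges set by clinical Cmax where known.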

[1] = second compound 0.0316 µM, first compound 0.0316 µM
[2] = second compound 0.0316 µM, first compound 0.1 µM
[3] = second compound 0.0316 µM, first compound 0.316 µM
[4] = second compound 0.0316 µM, first compound 1 µM
[5] = second compound 0.0316 µM, first compound 3.16 µM
[6] = second compound 0.0316 µM, first compound 10 µM
[7] = second compound 0.1 µM, first compound 0.0316 µM
[8] = second compound 0.1 µM, first compound 0.1 µM
[9] = second compound 0.1 µM, first compound 0.316 µM
[10] = second compound 0.1 µM, first compound 1 µM
[11] = second compound 0.1 µM, first compound 3.16 µM
[12] = second compound 0.1 µM, first compound 10 µM
[13] = second compound 0.316 µM, first compound 0.0316 µM
[14] = second compound 0.316 µM, first compound 0.1 µM
[15] = second compound 0.316 µM, first compound 0.316 µM
[16] = second compound 0.316 µM, first compound 1 µM
[17] = second compound 0.316 µM, first compound 3.16 µM
[18] = second compound 0.316 µM, first compound 10 µM
[19] = second compound 1 µM, first compound 0.0316 µM
[20] = second compound 1 µM, first compound 0.1 µM
[21] = second compound 1 µM, first compound 0.316 µM
[22] = second compound 1 µM, first compound 1 µM
[23] = second compound 1 µM, first compound 3.16 µM
[24] = second compound 1 µM, first compound 10 µM
[25] = second compound 3.16 µM, first compound 0.0316 µM
[26] = second compound 3.16 µM, first compound 0.1 µM
[27] = second compound 3.16 µM, first compound 0.316 µM
[28] = second compound 3.16 µM, first compound 1 µM
[29] = second compound 3.16 µM, first compound 3.16 µM
[30] = second compound 3.16 µM, first compound 10 µM
[31] = second compound 10 µM, first compound 0.0316 µM
[32] = second compound 10 µM, first compound 0.1 µM
[33] = second compound 10 µM, first compound 0.316 µM
[34] = second compound 10 µM, first compound 1 µM
[35] = second compound 10 µM, first compound 3.16 µM
[36] = second compound 10 µM, first compound 10 µM
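Note: spheroids exposed to drugs for seven days before reading.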
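Throughout, for viability, T/C: 100% = DMSO vehicle control viability in luminescence.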

O=C(c1cc(Cc2n[nH]c(=O)c3ccccc23)ccc1F)N1CCN(C(=O)C2CC2)CC1 + Nc1ccc(C#CCN(C(=O)Cc2ncc(C(F)(F)F)cc2C(F)(F)F)c2ccc(F)cc2)nn1
IC50 (second compound 0.0316 µM): > 10 µM | IC50 (second compound 0.1 µM): > 10 µM | IC50 (second compound 0.316 µM): > 10 µM | IC50 (second compound 1 µM): > 10 µM | IC50 (second compound 3.16 µM): > 10 µM | IC50 (second compound 10 µM): > 10 µM | viability, T/C [1]: 105% | viability, T/C [2]: 116% | viability, T/C [3]: 106% | viability, T/C [4]: 105% | viability, T/C [5]: 111% | viability, T/C [6]: 104% | viability, T/C [7]: 108% | viability, T/C [8]: 104% | viability, T/C [9]: 102% | viability, T/C [10]: 102% | viability, T/C [11]: 110% | viability, T/C [12]: 105% | viability, T/C [13]: 117% | viability, T/C [14]: 105% | viability, T/C [15]: 101% | viability, T/C [16]: 112% | viability, T/C [17]: 111% | viability, T/C [18]: 95.6% | viability, T/C [19]: 110% | viability, T/C [20]: 102% | viability, T/C [21]: 97.3% | viability, T/C [22]: 104% | viability, T/C [23]: 114% | viability, T/C [24]: 106% | viability, T/C [25]: 116% | viability, T/C [26]: 104% | viability, T/C [27]: 103% | viability, T/C [28]: 105% | viability, T/C [29]: 106% | viability, T/C [30]: 113% | viability, T/C [31]: 107% | viability, T/C [32]: 111% | viability, T/C [33]: 110% | viability, T/C [34]: 103% | viability, T/C [35]: 110% | viability, T/C [36]: 110%

CC(C)n1c(=O)n(C)c2cnc3cc(F)c(-c4ccc(OCCCN5CCCCC5)nc4)cc3c21 + Cc1cccc(N(C)C(=O)C2C(O)CCN2c2nc(C)cc(C(F)(F)F)c2C#N)c1
IC50 (second compound 0.0316 µM): > 10 µM | IC50 (second compound 0.1 µM): > 10 µM | IC50 (second compound 0.316 µM): > 10 µM | IC50 (second compound 1 µM): > 10 µM | IC50 (second compound 3.16 µM): > 10 µM | IC50 (second compound 10 µM): > 10 µM | viability, T/C [1]: 113% | viability, T/C [2]: 87% | viability, T/C [3]: 102% | viability, T/C [4]: 103% | viability, T/C [5]: 116% | viability, T/C [6]: 99.3% | viability, T/C [7]: 104% | viability, T/C [8]: 99% | viability, T/C [9]: 107% | viability, T/C [10]: 107% | viability, T/C [11]: 99.8% | viability, T/C [12]: 99.5% | viability, T/C [13]: 94% | viability, T/C [14]: 98.4% | viability, T/C [15]: 108% | viability, T/C [16]: 105% | viability, T/C [17]: 127% | viability, T/C [18]: 104% | viability, T/C [19]: 98.9% | viability, T/C [20]: 110% | viability, T/C [21]: 106% | viability, T/C [22]: 123% | viability, T/C [23]: 116% | viability, T/C [24]: 105% | viability, T/C [25]: 92% | viability, T/C [26]: 103% | viability, T/C [27]: 114% | viability, T/C [28]: 118% | viability, T/C [29]: 134% | viability, T/C [30]: 105% | viability, T/C [31]: 105% | viability, T/C [32]: 94.1% | viability, T/C [33]: 117% | viability, T/C [34]: 114% | viability, T/C [35]: 120% | viability, T/C [36]: 110%

— PubChem BioAssay AID1963850 (Molecular Pharmacology Branch, DTP, NCI, 2024)
